The experiment has as its system T1, plasma membrane H+-ATPases of wild-type FB2 (Pma1 and Pma2).
T1 construct: native enzymes in isolated plasma membrane fraction of wild-type sporidia; both pumps present; vanadate-sensitive ATPase activity
As to the kind of experiment: Pi release (Fiske-Subbarow), vanadate-sensitive ATPase activity of plasma membrane fraction, Michaelis-Menten fit. It counts as biochemical, Mycosarcoma maydis. The note with it: MES pH 6.5, 5 mM MgCl2, 30 °C, ATP regenerating system (phosphoenolpyruvate / pyruvate kinase), NaN3, KNO3, Pma1 and Pma2 together, rounded value for all strains, exact value in figure.

One may read the Km as the concentration of substrate that gives half-maximal velocity.

With `Nc1ncnc2c1ncn2[C@@H]1O[C@H](COP(=O)(O)OP(=O)(O)OP(=O)(O)O)[C@@H](O)[C@H]1O` [Mg-ATP], the Km is roughly 2000 µM.
